Laboratory results as given in the supplement of paper PMC8967900.

How the values were obtained:
Assay in all cases: selective drug sensitivity score (sDSS, relative to normal bone marrow) (sDSS (score)); higher = more potent and effective on the cell line relative to normal bone marrow cells
Conditions in all cases: 72 h
NALM-6 = tested on: NALM-6
MOLT-16 = tested on: MOLT-16
NALM-16 = tested on: NALM-16
MHH-CALL-2 = tested on: MHH-CALL-2
P30-OHKUBO = tested on: P30-OHKUBO
COG-LL-332h = tested on: COG-LL-332h
MHH-CALL-3 = tested on: MHH-CALL-3
JURKAT = tested on: JURKAT
LC4-1 = tested on: LC4-1
PEER = tested on: PEER
380 = tested on: 380
COG-LL-394h = tested on: COG-LL-394h
ALL-PO = tested on: ALL-PO
ALL-SIL = tested on: ALL-SIL
SEM cells = tested on: SEM cells
CCRF-CEM = tested on: CCRF-CEM
NALL-1 = tested on: NALL-1
MN-60 = tested on: MN-60
MHH-CALL-4 = tested on: MHH-CALL-4
COG-LL-319h = tested on: COG-LL-319h
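Also: ALL cell lines in 384-well plates, five doses spanning 10,000-fold, each plate scaled between vehicle and 100 µmol/L benzalkonium chloride controls, sDSS an adapted area-under-curve metric.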

In the case of `Nc1cccc2c1CN(C1CCC(=O)NC1=O)C2=O` (stereo not given) [Lenalidomide] (top concentration 100000 nM), the “selective drug sensitivity score” value (NALM-6) is reported as -2.28, the “selective drug sensitivity score” value (MOLT-16) is reported as -0.88 and the “selective drug sensitivity score” value (NALM-16) is reported as -0.38. For the same molecule, the “selective drug sensitivity score” value (MHH-CALL-2) was 1.92, the “selective drug sensitivity score” value (P30-OHKUBO) was -2.28 and the “selective drug sensitivity score” value (COG-LL-332h) was 0.22. The “selective drug sensitivity score” value (MHH-CALL-3) was -2.28, the “selective drug sensitivity score” value (JURKAT) was -2.28 and the “selective drug sensitivity score” value (LC4-1) was -0.58. The “selective drug sensitivity score” value (PEER) was -1.28, the “selective drug sensitivity score” value 380 was 1.62 and the “selective drug sensitivity score” value (COG-LL-394h) was -2.28. The “selective drug sensitivity score” value (ALL-PO) was -2.28, the “selective drug sensitivity score” value (ALL-SIL) was -0.88 and the “selective drug sensitivity score” value (SEM cells) was 3.82. The “selective drug sensitivity score” value (CCRF-CEM) was 0.92, the “selective drug sensitivity score” value (NALL-1) was -2.28 and the “selective drug sensitivity score” value (MN-60) was -2.28. The “selective drug sensitivity score” value (MHH-CALL-4) was 5.42 and the “selective drug sensitivity score” value (COG-LL-319h) was -1.78.

`CC(C)(C)c1cnc(CSc2cnc(NC(=O)C3CCNCC3)s2)o1` [SNS-032] (top concentration 10000 nM) was tested, and the “selective drug sensitivity score” value (NALM-6) was -2.44, the “selective drug sensitivity score” value (MOLT-16) was -0.64 and the “selective drug sensitivity score” value (NALM-16) was -6.04. The “selective drug sensitivity score” value (MHH-CALL-2) was 2.96, the “selective drug sensitivity score” value (P30-OHKUBO) was -0.34 and the “selective drug sensitivity score” value (COG-LL-332h) was -3.54. For the same molecule, the “selective drug sensitivity score” value (MHH-CALL-3) was -4.44, the “selective drug sensitivity score” value (JURKAT) was -6.54 and the “selective drug sensitivity score” value (LC4-1) was -3.24. For the same molecule, the “selective drug sensitivity score” value (PEER) was -4.94, the “selective drug sensitivity score” value 380 was -6.64 and the “selective drug sensitivity score” value (COG-LL-394h) was -2.04. For the same molecule, the “selective drug sensitivity score” value (ALL-PO) was -6.74, the “selective drug sensitivity score” value (ALL-SIL) was -3.84 and the “selective drug sensitivity score” value (SEM cells) was -3.24. The “selective drug sensitivity score” value (CCRF-CEM) was -1.74, the “selective drug sensitivity score” value (NALL-1) was -4.94 and the “selective drug sensitivity score” value (MN-60) was -8.64. For the same molecule, the “selective drug sensitivity score” value (MHH-CALL-4) was -1.04 and the “selective drug sensitivity score” value (COG-LL-319h) was -2.24.

`Cc1noc2c1-c1ccccc1C(c1ccc(Cl)cc1)=N[C@H]2CC(N)=O` [CPI-0610] (top concentration 10000 nM) was tested, and the “selective drug sensitivity score” value (NALM-6) was 5.6, the “selective drug sensitivity score” value (MOLT-16) was 6.7 and the “selective drug sensitivity score” value (NALM-16) was 1.4. For the same molecule, the “selective drug sensitivity score” value (MHH-CALL-2) was -3, the “selective drug sensitivity score” value (P30-OHKUBO) was 6.1 and the “selective drug sensitivity score” value (COG-LL-332h) was -2.8. The “selective drug sensitivity score” value (MHH-CALL-3) was 17.9, the “selective drug sensitivity score” value (JURKAT) was -0.2 and the “selective drug sensitivity score” value (LC4-1) was 3.6. For the same molecule, the “selective drug sensitivity score” value (PEER) was -1.9, the “selective drug sensitivity score” value 380 was 1.7 and the “selective drug sensitivity score” value (COG-LL-394h) was 0.5. The “selective drug sensitivity score” value (ALL-PO) was 7.9, the “selective drug sensitivity score” value (ALL-SIL) was -0.6 and the “selective drug sensitivity score” value (SEM cells) was 7.5. The “selective drug sensitivity score” value (CCRF-CEM) was -0.1, the “selective drug sensitivity score” value (NALL-1) was -4.4 and the “selective drug sensitivity score” value (MN-60) was 6.9. For the same molecule, the “selective drug sensitivity score” value (MHH-CALL-4) was -4.1 and the “selective drug sensitivity score” value (COG-LL-319h) was 10.3.

`N#Cc1ccc(COC[C@H]2O[C@@H](n3c(NCc4ccc(Cl)c(Cl)c4)nc4c(N)ncnc43)[C@H](O)[C@@H]2O)cc1` (top concentration 10000 nM) was tested, and the “selective drug sensitivity score” value (NALM-6) was 5.92, the “selective drug sensitivity score” value (MOLT-16) was 9.72 and the “selective drug sensitivity score” value (NALM-16) was -0.88. For the same molecule, the “selective drug sensitivity score” value (MHH-CALL-2) was 0.52, the “selective drug sensitivity score” value (P30-OHKUBO) was 1.62 and the “selective drug sensitivity score” value (COG-LL-332h) was 10.4. The “selective drug sensitivity score” value (MHH-CALL-3) was 0.32, the “selective drug sensitivity score” value (JURKAT) was 4.72 and the “selective drug sensitivity score” value (LC4-1) was 0.32. For the same molecule, the “selective drug sensitivity score” value (PEER) was 10.7, the “selective drug sensitivity score” value 380 was -0.98 and the “selective drug sensitivity score” value (COG-LL-394h) was -0.08. For the same molecule, the “selective drug sensitivity score” value (ALL-PO) was 4.82, the “selective drug sensitivity score” value (ALL-SIL) was 11.7 and the “selective drug sensitivity score” value (SEM cells) was 5.22. For the same molecule, the “selective drug sensitivity score” value (CCRF-CEM) was 7.62, the “selective drug sensitivity score” value (NALL-1) was -0.48 and the “selective drug sensitivity score” value (MN-60) was 2.12. For the same molecule, the “selective drug sensitivity score” value (MHH-CALL-4) was -0.68 and the “selective drug sensitivity score” value (COG-LL-319h) was 7.52.

With `NCC(=O)Nc1ccc(-n2nc(C(F)(F)F)cc2-c2ccc3c(ccc4ccccc43)c2)cc1` (top concentration 25000 nM) the “selective drug sensitivity score” value (NALM-6) was 13.3, the “selective drug sensitivity score” value (MOLT-16) was 19 and the “selective drug sensitivity score” value (NALM-16) was 5.4. For the same molecule, the “selective drug sensitivity score” value (MHH-CALL-2) was 7.1, the “selective drug sensitivity score” value (P30-OHKUBO) was 7.6 and the “selective drug sensitivity score” value (COG-LL-332h) was 14.3. The “selective drug sensitivity score” value (MHH-CALL-3) was -0.2, the “selective drug sensitivity score” value (JURKAT) was 15.3 and the “selective drug sensitivity score” value (LC4-1) was 2.7. The “selective drug sensitivity score” value (PEER) was 9.9, the “selective drug sensitivity score” value 380 was 9.6 and the “selective drug sensitivity score” value (COG-LL-394h) was -0.2. The “selective drug sensitivity score” value (ALL-PO) was 7.7, the “selective drug sensitivity score” value (ALL-SIL) was 8.4 and the “selective drug sensitivity score” value (SEM cells) was 8. For the same molecule, the “selective drug sensitivity score” value (CCRF-CEM) was 7.9, the “selective drug sensitivity score” value (NALL-1) was 5 and the “selective drug sensitivity score” value (MN-60) was 18.9. For the same molecule, the “selective drug sensitivity score” value (MHH-CALL-4) was 2.9 and the “selective drug sensitivity score” value (COG-LL-319h) was 8.

For `Cc1ccc(C(=O)Nc2cccc(C(F)(F)F)c2)cc1Nc1nc(-c2cccnc2)nc2c1cnn2C` [NVP-BHG712] (top concentration 10000 nM), the “selective drug sensitivity score” value (NALM-6) was -2.32, the “selective drug sensitivity score” value (MOLT-16) was 3.68 and the “selective drug sensitivity score” value (NALM-16) was -2.32. For the same molecule, the “selective drug sensitivity score” value (MHH-CALL-2) was 5.28, the “selective drug sensitivity score” value (P30-OHKUBO) was 5.98 and the “selective drug sensitivity score” value (COG-LL-332h) was 5.98. For the same molecule, the “selective drug sensitivity score” value (MHH-CALL-3) was 1.48, the “selective drug sensitivity score” value (JURKAT) was 2.98 and the “selective drug sensitivity score” value (LC4-1) was 3.38. The “selective drug sensitivity score” value (PEER) was 8.18, the “selective drug sensitivity score” value 380 was 1.28 and the “selective drug sensitivity score” value (COG-LL-394h) was -2.32. For the same molecule, the “selective drug sensitivity score” value (ALL-PO) was 2.48, the “selective drug sensitivity score” value (ALL-SIL) was 13.3 and the “selective drug sensitivity score” value (SEM cells) was 2.48. The “selective drug sensitivity score” value (CCRF-CEM) was 3.38, the “selective drug sensitivity score” value (NALL-1) was 2.98 and the “selective drug sensitivity score” value (MN-60) was 0.68. The “selective drug sensitivity score” value (MHH-CALL-4) was 1.18 and the “selective drug sensitivity score” value (COG-LL-319h) was 3.68.

With `COc1cccc(OCCCN)c1-c1cc(Nc2cnc(C#N)cn2)n[nH]1` [Prexasertib] (top concentration 10000 nM) the “selective drug sensitivity score” value (NALM-6) was 18.4, the “selective drug sensitivity score” value (MOLT-16) was 21 and the “selective drug sensitivity score” value (NALM-16) was 13.8. For the same molecule, the “selective drug sensitivity score” value (MHH-CALL-2) was 20.1, the “selective drug sensitivity score” value (P30-OHKUBO) was 21.3 and the “selective drug sensitivity score” value (COG-LL-332h) was 20.7. The “selective drug sensitivity score” value (MHH-CALL-3) was 13.4, the “selective drug sensitivity score” value (JURKAT) was 17.4 and the “selective drug sensitivity score” value (LC4-1) was 19.6. The “selective drug sensitivity score” value (PEER) was 17.9, the “selective drug sensitivity score” value 380 was 15.7 and the “selective drug sensitivity score” value (COG-LL-394h) was -0.96. The “selective drug sensitivity score” value (ALL-PO) was 14.5, the “selective drug sensitivity score” value (ALL-SIL) was 20.8 and the “selective drug sensitivity score” value (SEM cells) was 15.9. The “selective drug sensitivity score” value (CCRF-CEM) was 18.8, the “selective drug sensitivity score” value (NALL-1) was 19.4 and the “selective drug sensitivity score” value (MN-60) was 4.24. For the same molecule, the “selective drug sensitivity score” value (MHH-CALL-4) was 11.4 and the “selective drug sensitivity score” value (COG-LL-319h) was 19.4.

In the case of `CC(C)c1cc(C(=O)N2Cc3ccc(CN4CCN(C)CC4)cc3C2)c(O)cc1O` [Onalespib] (top concentration 2500 nM), the “selective drug sensitivity score” value (NALM-6) is reported as 5.52, the “selective drug sensitivity score” value (MOLT-16) is reported as 7.42 and the “selective drug sensitivity score” value (NALM-16) is reported as 1.82. The “selective drug sensitivity score” value (MHH-CALL-2) was -1.28, the “selective drug sensitivity score” value (P30-OHKUBO) was 1.32 and the “selective drug sensitivity score” value (COG-LL-332h) was 7.62. The “selective drug sensitivity score” value (MHH-CALL-3) was 8.42, the “selective drug sensitivity score” value (JURKAT) was -1.18 and the “selective drug sensitivity score” value (LC4-1) was 3.22. The “selective drug sensitivity score” value (PEER) was 0.52, the “selective drug sensitivity score” value 380 was 6.52 and the “selective drug sensitivity score” value (COG-LL-394h) was -2.38. The “selective drug sensitivity score” value (ALL-PO) was 1.62, the “selective drug sensitivity score” value (ALL-SIL) was 4.52 and the “selective drug sensitivity score” value (SEM cells) was 3.92. The “selective drug sensitivity score” value (CCRF-CEM) was 4.62, the “selective drug sensitivity score” value (NALL-1) was -4.68 and the “selective drug sensitivity score” value (MN-60) was -0.48. For the same molecule, the “selective drug sensitivity score” value (MHH-CALL-4) was -0.48 and the “selective drug sensitivity score” value (COG-LL-319h) was 7.92.

With `Nc1ncn([C@@H]2O[C@H](CO)[C@@H](O)[C@H]2O)c(=O)n1` [Azacitidine] (top concentration 10000 nM) the “selective drug sensitivity score” value (NALM-6) was 3.34, the “selective drug sensitivity score” value (MOLT-16) was 7.14 and the “selective drug sensitivity score” value (NALM-16) was 1.84. For the same molecule, the “selective drug sensitivity score” value (MHH-CALL-2) was 5.84, the “selective drug sensitivity score” value (P30-OHKUBO) was 6.54 and the “selective drug sensitivity score” value (COG-LL-332h) was 3.64. For the same molecule, the “selective drug sensitivity score” value (MHH-CALL-3) was 4.24, the “selective drug sensitivity score” value (JURKAT) was 4.04 and the “selective drug sensitivity score” value (LC4-1) was 6.04. For the same molecule, the “selective drug sensitivity score” value (PEER) was 6.64, the “selective drug sensitivity score” value 380 was 5.44 and the “selective drug sensitivity score” value (COG-LL-394h) was -2.26. For the same molecule, the “selective drug sensitivity score” value (ALL-PO) was 6.94, the “selective drug sensitivity score” value (ALL-SIL) was 5.94 and the “selective drug sensitivity score” value (SEM cells) was 8.74. For the same molecule, the “selective drug sensitivity score” value (CCRF-CEM) was 9.34, the “selective drug sensitivity score” value (NALL-1) was 4.14 and the “selective drug sensitivity score” value (MN-60) was 0.84. For the same molecule, the “selective drug sensitivity score” value (MHH-CALL-4) was 6.14 and the “selective drug sensitivity score” value (COG-LL-319h) was 7.84.
